In patent publication US7754887B2, “Process for production of sulfoxide derivatives or salts thereof in the amorphous state” (EISAI R&D Management Co., Ltd., priority 2003, dated 2010):

Legend:
[1] = scan speed 2° C./min, 20 to 120° C.; FIG. 6
[2] = Measurement of specific surface (nitrogen-absorption isotherm, BET method); assay type: physicochemical; settings: Sodium Salt; for Specific surface: BET method, nitrogen absorption at 77 K after vacuum degassing at 50° C.; for Specific surface, relative comparison: relative to the freeze-dried product
Protocol: Measurement of Specific Surface:
As for each of amorphous substances of 2-[[4-(3-methoxypropoxy)-3-methylpyridine-2-yl]methylsulfinyl]-1H-benzimidazole sodium salt obtained by freeze-drying (Reference example 2), heat-drying (Example 3), respectively, the nitrogen-absorption isotherms were measured at liquid nitrogen temperature (77 K) by a high accuracy full automatic gas absorption equipment “BELSORP 36” (prepared by Japan Bell) after vacuum degassing at 50° C. These isotherms were analyzed by BET method to obtain the specific surface.

[3] = Measurement of particle size distribution by laser diffractometry (Microtrac X100); assay type: physicochemical; settings: Sodium Salt; for particle size distribution: Microtrac X100, FIG. 4 and FIG. 5; for 90% cumulative diameter: calculated by measurement of the particle size distribution
Protocol: The measurement of particle size distribution by laser diffractometry can be conducted, for example, by using “Microtrac X100” (made by Leeds And Northrup). In the case where the particle size distribution of the amorphous substance of sulfoxide derivative (I) or the salt thereof, which is prepared by conducting the above-mentioned heat-drying, is measured by the laser diffractometry, the amorphous substance of sulfoxide derivative (I) or the salt thereof has 50 μm or less, preferably 30 μm or less of average particle diameter, and 80 μm or less, preferably 50 μm or less of 90% cumulative diameter.

Row | SMILES | temperature at which the acetone starts to be effectively decreased [1] | temperature at which the weight starts to be decreased [1] | Specific surface [2] | Specific surface, relative comparison [2] | particle size distribution [3] | 90% cumulative diameter [3]
1 | CC(C)=O.COCCCOc1ccnc(C[S+]([O-])c2nc3ccccc3[n-]2)c1C.[Na+] (stereo not shown) [Acetone Complex of 2-[[4-(3-methoxypropoxy)-3-methylpyridine-2-yl]methylsulfinyl]-1H-benzimidazole Sodium Salt] | ≥ 76.7 °C | ≥ 65.7 °C |  |  |  | 
2 | COCCCOc1ccnc(C[S+]([O-])c2nc3ccccc3[nH]2)c1C.[Na] (stereo not shown) [The freeze-dried product, 2-[[4-(3-methoxypropoxy)-3-methylpyridine-2-yl]methylsulfinyl]-1H-benzimidazole Sodium Salt] |  |  | 2.3 m^2/g | 1.00 | broad | 192.3 μm
3 | COCCCOc1ccnc(C[S+]([O-])c2nc3ccccc3[nH]2)c1C.[Na] (stereo not shown) [The heat-dried product, 2-[[4-(3-methoxypropoxy)-3-methylpyridine-2-yl]methylsulfinyl]-1H-benzimidazole Sodium Salt] |  |  | 1.6 m^2/g | 0.70 | sharp | 18.0 μm
